Assay results as given in ChEMBL document CHEMBL3259720, “Design of novel multiple-acting ligands towards SERT and 5-HT2C receptors” (Bioorg Med Chem Lett, 2014).
pKi: −log10 of the molar value.

Experiments:
[1] = target: T1, 5-hydroxytryptamine receptor 2C (Rattus norvegicus) (UniProt P08909); assay: Displacement of [3H]mesulergine from 5-HT2C receptor in Sprague-Dawley rat choroid plexus membranes at 1000 nM after 30 mins by liquid scintillation spectrophotometric analysis relative to control; conditions: Membrane
T1 sequence (whole entry): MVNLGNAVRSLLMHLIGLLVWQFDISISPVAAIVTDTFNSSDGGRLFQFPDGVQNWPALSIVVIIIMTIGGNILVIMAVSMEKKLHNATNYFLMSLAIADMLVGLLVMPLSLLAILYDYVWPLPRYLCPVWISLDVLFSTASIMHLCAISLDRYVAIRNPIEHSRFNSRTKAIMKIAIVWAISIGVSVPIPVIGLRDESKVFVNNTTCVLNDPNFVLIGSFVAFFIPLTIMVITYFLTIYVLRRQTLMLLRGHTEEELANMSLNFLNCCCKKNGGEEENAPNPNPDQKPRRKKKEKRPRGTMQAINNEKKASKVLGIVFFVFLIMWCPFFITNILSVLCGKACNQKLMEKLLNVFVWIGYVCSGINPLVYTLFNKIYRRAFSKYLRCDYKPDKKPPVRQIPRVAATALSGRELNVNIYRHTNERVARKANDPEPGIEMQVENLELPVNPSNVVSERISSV

[2] = target: Sodium-dependent serotonin transporter (Rattus norvegicus) (UniProt P31652); assay: Displacement of [3H]citalopram from SERT in Sprague-Dawley rat whole brain membranes at 300 nM after 1 hr by liquid scintillation spectrophotometric analysis relative to control; assay type: tissue-based; conditions: Membrane
[3] = tested on: Liver; assay: Intrinsic clearance in mouse liver microsomes measured per gram of tissue at 2.5 uM after 20 mins; assay type: ADME
[4] = target: T2, 5-hydroxytryptamine receptor 2C (Rattus norvegicus, UniProt P08909); assay: biochemical
T2 sequence (P08909 whole entry): T1 sequence (whole entry)
Description: Displacement of [3H]mesulergine from 5-HT2C receptor in Sprague-Dawley rat choroid plexus membranes after 30 mins by liquid scintillation spectrophotometric analysis

[5] = target: Sodium-dependent serotonin transporter (Rattus norvegicus, UniProt P31652); assay: biochemical
Description: Displacement of [3H]citalopram from SERT in Sprague-Dawley rat whole brain membranes after 1 hr by liquid scintillation spectrophotometric analysis

[6] = in vitro; conditions: human, Caco-2
Description: Efflux ratio of apparent permeability from basolateral to apical over apical to basolateral side in vinblastine-treated human Caco2 cells at 3 to 50 uM

[7] = Apparent permeability from apical to basolateral side in vinblastine-treated human Caco2 cells at 3 to 50 uM; assay type: ADME, cell-based; conditions: Caco-2
[8] = tested on: Liver microsome; assay: Intrinsic clearance in human liver microsomes measured per gram of tissue at 2.5 uM after 20 mins; assay type: ADME

Sequence of Sodium-dependent serotonin transporter (P31652 whole entry): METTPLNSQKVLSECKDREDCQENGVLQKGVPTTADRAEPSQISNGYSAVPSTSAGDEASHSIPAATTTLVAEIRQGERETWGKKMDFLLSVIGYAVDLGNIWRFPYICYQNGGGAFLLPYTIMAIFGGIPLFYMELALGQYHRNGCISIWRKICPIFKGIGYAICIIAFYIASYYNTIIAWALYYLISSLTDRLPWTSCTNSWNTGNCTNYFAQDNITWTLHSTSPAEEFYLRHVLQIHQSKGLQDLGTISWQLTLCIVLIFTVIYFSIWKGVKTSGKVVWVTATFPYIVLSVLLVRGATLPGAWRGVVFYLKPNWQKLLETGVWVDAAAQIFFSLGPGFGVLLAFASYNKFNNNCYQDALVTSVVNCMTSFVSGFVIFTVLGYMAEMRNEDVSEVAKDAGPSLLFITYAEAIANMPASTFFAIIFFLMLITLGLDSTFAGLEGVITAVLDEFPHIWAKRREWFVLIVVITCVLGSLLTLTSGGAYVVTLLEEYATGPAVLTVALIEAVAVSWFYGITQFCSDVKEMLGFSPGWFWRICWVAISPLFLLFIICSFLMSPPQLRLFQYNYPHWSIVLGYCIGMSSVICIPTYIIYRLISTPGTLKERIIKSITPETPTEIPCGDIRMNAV
Sequence of Sodium-dependent serotonin transporter (Rattus norvegicus) (P31652 whole entry): as above

pKi [4]	pKi [5]	Compound	other results
–	–	CN(C)CCC(Oc1ccc(NC(=O)Nc2ccc3ccccc3c2)cn1)c1ccccc1 (centres undefined)	inhibition [1]: 43%; inhibition [2]: 3%
8.77	7.21	CN(C)CCC(Oc1ccc(NC(=O)Nc2ccc3ccccc3c2)cc1)c1ccccc1 (centres undefined)	CLH [3]: 0.03 mL/min
8.54	6.87	CN(C)CCC(Oc1ccc(NC(=O)Nc2ccc(Cl)c(Cl)c2)cc1)c1ccccc1 (centres undefined)	–
7.80	8.05	CN(C)CCC(Oc1ccc(NC(=O)Nc2ccc3c(ccn3C)c2)cc1)c1ccccc1 (centres undefined)	efflux ratio at 50 µM [6]: 5.3; Papp A→B at 50 µM [7]: 5.8 ×10⁻⁶ cm/s
7.99	6.99	CN(C)CCC(Oc1ccc(N2CCN(c3ccc(Cl)c(Cl)c3)C2=O)cc1)c1ccccc1 (centres undefined)	–
7.97	7.42	CCn1ccc2cc(NC(=O)Nc3ccc(OC(CCN(C)C)c4ccccc4)cc3)ccc21 (centres undefined)	–
7.06	7.55	CN(C)CCC(Oc1cccc(NC(=O)Nc2ccc3ccccc3c2)c1)c1ccccc1 (centres undefined)	–
7.95	7.39	COc1ccc(NC(=O)Nc2ccc(OC(CCN(C)C)c3ccccc3)cc2)cc1Cl (centres undefined)	CLH [8]: 0.68 mL/min; efflux ratio at 50 µM [6]: 2.2; Papp A→B at 50 µM [7]: 7.5 ×10⁻⁶ cm/s
8.48	7.02	COc1ccc(NC(=O)Nc2ccc(OC(CCN(C)C)c3ccccc3)cc2)cc1C(F)(F)F (centres undefined)	–
6.19	8.03	CN(C)CCC(Oc1cccc(NC(=O)Nc2ccc3c(ccn3C)c2)c1)c1ccccc1 (centres undefined)	–
8.47	–	CSc1ccc(NC(=O)Nc2ccc(OC(CCN(C)C)c3ccccc3)cc2)cc1C(F)(F)F (centres undefined)	inhibition [2]: 31%
7.34	7.46	Cc1ccc(C(=O)Nc2ccc(OC(CCN(C)C)c3ccccc3)cc2)cc1Cl (centres undefined)	CLH [8]: 0.59 mL/min; efflux ratio at 50 µM [6]: 0.7; Papp A→B at 50 µM [7]: 19.9 ×10⁻⁶ cm/s
8.21	< 5.00	O=C(Nc1cccnc1)Nc1ccc2ccccc2c1	–
7.79	7.51	COc1cc(NC(=O)Nc2ccc(OC(CCN(C)C)c3ccccc3)cc2)ccc1Cl (centres undefined)	–
7.04	7.65	COc1ccc(C(=O)Nc2ccc(OC(CCN(C)C)c3ccccc3)cc2)cc1C(F)(F)F (centres undefined)	–
6.91	< 5.00	Cn1ccc2cc(NC(=O)Nc3cccnc3)ccc21	–
8.62	6.92	Cc1ccc(NC(=O)Nc2ccc(OC(CCN(C)C)c3ccccc3)cc2)cc1I (centres undefined)	–
8.55	–	COc1cc(NC(=O)Nc2ccc(Cl)c(Cl)c2)ccc1OC(CCN(C)C)c1ccccc1 (centres undefined)	inhibition [2]: 38%
7.24	7.19	CN(C)CCC(Oc1ccc(NC(=O)c2ccc(Cl)c(Cl)c2)cc1)c1ccccc1 (centres undefined)	CLH [8]: 0.65 mL/min; efflux ratio at 50 µM [6]: 1.1; Papp A→B at 50 µM [7]: 11.3 ×10⁻⁶ cm/s
6.82	7.80	COc1ccc(C(=O)Nc2ccc(OC(CCN(C)C)c3ccccc3)cc2)cc1Cl (centres undefined)	–
7.96	7.71	CN(C)CCC(Oc1ccc(NC(=O)Nc2ccc3ccn(C)c3c2)cc1)c1ccccc1 (centres undefined)	–
6.71	–	COc1ccc(NC(=O)Nc2ccc(Cl)c(Cl)c2)cc1OC(CCN(C)C)c1ccccc1 (centres undefined)	inhibition [2]: -9%
9.22	7.21	Cc1ccc(NC(=O)Nc2ccc(OC(CCN(C)C)c3ccccc3)cc2)cc1Cl (centres undefined)	CLH [8]: 0.06 mL/min; CLH [3]: 0.9 mL/min
–	8.40	CN(C)CCC(Oc1ccc(NC(=O)Nc2ccc3nccn3c2)cc1)c1ccccc1 (centres undefined)	inhibition [1]: 53%
–	–	CN(C)CCC(Oc1ccc(NC(=O)Nc2ccc3ccn(C)c3c2)cn1)c1ccccc1 (centres undefined)	inhibition [1]: 15%; inhibition [2]: 1%
7.10	7.05	CN(C)CCC(Oc1ccc(NC(=O)N(C)c2ccc(Cl)c(Cl)c2)cc1)c1ccccc1 (centres undefined)	efflux ratio at 50 µM [6]: 1.6
–	–	CN(C)CCC(Oc1ccc(NC(=O)Nc2ccc3c(ccn3C)c2)cn1)c1ccccc1 (centres undefined)	inhibition [1]: 7%; inhibition [2]: -5%
